Patent US20030144347A1, “Method for treating autoimmune disease” (priority 2001, published 2003)

Key:
[1] = test system: patient suffering from multiple sclerosis; experiment: Case reports: patients suffering from multiple sclerosis treated with topiramate; format: in vivo, human
Protocol: A patient suffering from multiple sclerosis was administered 15 mg per day of topiramate. The dosage was increased after 15 days to 30 mg per day. At 15 mg, the patient's involuntary stretch rigid response stopped and the patient was able to get out of bed without falling backward when their feet touched the floor for the first time in nine years.
The patient previously took trazadone 100 mg at bedtime, clonazepan 1 mg three times a day, citalapram 40 mg each morning, gabapentrin 600 mg four times a day, and synthroid 25 mcg per day for two years. They had refused steroids and interferon because of side effects.
The Topamax was increased to 15 mg at bedtime and they reported “no bad bladder accidents” and that their leg and foot cramps had disappeared. […] They were discharged on Topamax 15 mg at bedtime along with previous medications. The patient was much improved medically and emotionally.
The patient returned four weeks later walking with a cane, having worked “10 to 14 hours per day and exhausted from my move with little sleep during the past month”. They reported “insatiable itching all over my body wherever my clothes touch the skin” which […] unsuccessfully tried to treat with cetirizine. […] said […] felt “dizzy, weak, Charlie horses in arches of feet and toes, unable to stand for more than 10 minutes before starting to have gait problems, problems sleeping, having trouble mentally and urine leaking”. […] working diagnoses are Axis I Bipolar disorder, not otherwise specified Axis III multiple sclerosis. […]

[2] = test system: patient suffering from diabetes, Type 1; experiment: Case report: patient suffering from diabetes, Type 1; format: in vivo, human; conditions: Example 2
Protocol: A patient suffering from diabetes, Type 1, was administered 25 mg per day of topiramate for 10 days, which was then increased to 50 mg per day.

[3] = test system: patient suffering from rheumatoid arthritis; experiment: Case reports: patients suffering from rheumatoid arthritis; format: in vivo, human
Protocol: A patient suffering from rheumatoid arthritis was administered 25 mg per day of topiramate with an increase every 10 days by 25 mg until 25 mg, 3 times per day, was achieved. The patient previously took 3 or 4 tablets per day of lortab, seven 2.5 mg tablets of methotrexate once a week, 200 mg per day of minocycline and 10 mg per day of prednisone.
An adolescent patient suffering from rheumatoid arthritis began taking 15 mg per day of topiramate for one week, which was then increased by 15 mg weekly until 45 mg per day, in three divided dosages of 15 mg each, was reached. The patient previously took 3 to 5 mg of prednisone daily.
A patient suffering from rheumatoid arthritis with a positive rheumatic factor about 3 decades earlier, at which time they also experienced polyarthritis and Renaud's phenomena, was treated with prednisone 40 mg per day for six months and was then weaned off the prednisone after one year. In the ensuing years, psoriasis developed on both elbows which was worse in the winter. They were an avid golfer and experienced painful swelling and stiffness of both wrists and hands, especially the left, and back pain and stiffness. […] They were begun on Topamax 15 mg a day which was increased weekly by 15 mg until 45 mg per day was taken in divided doses.

[4] = test system: patient suffering from psoriatic arthritis; experiment: Case reports: patients suffering from psoriatic arthritis; format: in vivo, human
Protocol: A patient suffering from psoriatic arthritis began taking 15 mg per day of topiramate. […] When the dose was increased slightly to 25 mg twice a day, the patient realized they were experiencing minimal pain and resumed garden work using a rototiller for the first time in two years. These benefits have continued for more than five months at this dose. […] This has continued for more than ten months. A patient suffering from psoriatic arthritis began taking 25 mg per day of topiramate. The dosage was increased each week until […] was achieved. […] The patient was stabilized at 25 mg, twice a day, for convenience. Their benefits from topiramate have continued for almost five months.

[5] = test system: patient suffering from ulcerative colitis; experiment: Case reports: patients suffering from ulcerative colitis; format: in vivo, human; conditions: Example 9
Protocol: A patient suffering from ulcerative colitis began taking 25 mg per day of topiramate, with dosage increases of 25 mg/day each week. […] By the end of nine months, the patient's weight was decreased to 270 lbs from 315 lbs. Their disease was no longer affecting their ability to go to or stay at work. Their colonoscopy exam was negative for the first time since the onset of their illness.

[6] = test system: patient suffering from systemic lupus erythematosis; experiment: Case report: patient suffering from systemic lupus erythematosis; format: in vivo, human; conditions: Example 11
Protocol: A young adolescent patient suffering from systemic lupus erythematosis and taking 30 mg bid of prednisone began taking 15 mg per day of topiramate. […] The prednisone was reduced to 25 mg per day after 4 weeks and to 10 mg after 6 weeks. This benefit has continued for over 6 months.

[7] = test system: patient suffering from psoriasis; experiment: Case reports: patients suffering from psoriasis; format: in vivo, human
Protocol: A patient suffering from psoriasis began taking 15 mg per day of topiramate for seven days, which was increased by 15 mg per day until reaching a dose of 45 mg/day in equally divided doses.

[8] = test system: patient suffering from ulcerative colitis; experiment: Case reports: patients suffering from ulcerative colitis; format: in vivo, human
[9] = test system: human epilepsy; conditions: clinical trials; cited from earlier work
[10] = test system: animal model of kindled epilepsy; conditions: cited from earlier work
[11] = Example 18, 15 mg at bedtime, two days later
[12] = Example 6, 25 mg per day, 4 weeks

CC1(C)O[C@@H]2[C@@H](CO[C@@]3(COS(N)(=O)=O)OC(C)(C)O[C@@H]23)O1 [topiramate, 2,3:4,5-bis-O-(1-methylethylidence)-β-D-fructopyranose sulfamate]
duration of beneficial effect ([1]; Example 1, 12.5 mg per day): more than 10 months
involuntary stretch rigid response ([1]; Example 1, 15 mg per day): stopped
spastic rigid response ([1]; Example 1, dose lowered to 12.5 mg per day): no longer present
involuntary stretch rigid response ([1]; Example 1, higher dose of 30 mg per day): reversed this benefit
walking and back pain ([1]; Example 18, 7.5 mg at bedtime for three days): walking better and reported reduced back pain
leg and foot cramps ([1]; Example 18, 15 mg at bedtime): disappeared
urinary incontinence and back pain [1, 11]: no urinary incontinence or back pain
walking [1, 11]: walking without a cane
patient-reported symptoms ([1]; Example 18, 30 mg at bedtime, seen eight days later): no dizziness, weakness, urinary incontinence and decreased gait problems, itching and pain
follow-up period with blood glucose remaining in that range [2]: 16 weeks
duration of benefit ([3]; Example 3): 15 weeks
mobility ([3]; Example 3, 25 mg, 3 times per day): increased mobility
pain (patient reported) ([3]; Example 3, 25 mg, 3 times per day, lortab and minocycline discontinued, prednisone and methotrexate reduced): significant decrease in pain
decrease in pain ([3]; Example 4, adolescent patient, 15 mg twice a day): 40-50%
reduction in pain ([3]; Example 4, adolescent patient, 45 mg per day): 70%
duration of benefits ([3]; Example 4, prednisone decreased to 0.5 mg/day): four
psoriasis ([3]; Example 17, 45 mg per day in divided doses): improvement in their psoriasis
joint pain in both hands, self-rating scale of 0 to 10 ([3]; Example 17, 45 mg per day in divided doses, decreased from 6): 2
getting out of bed ([4]; Example 5, 15 mg every morning and 30 mg every evening, after one month): able to more easily get out of bed
skin lesions and joint pain ([4]; Example 5, 15 mg twice per day): some improvement in skin lesions and decreased joint pain
duration of benefits ([4]; Example 5, 25 mg twice a day): more than five
pain ([4]; Example 5, 25 mg twice a day): minimal pain
duration of improvement ([4]; Example 6, 7.5 mg twice a day): more than ten
adverse effect [4, 12]: severe lethargy
middle knuckle swelling [4, 12]: significant reduction and almost total disappearance
course of improvement ([4]; Example 6, dose reduced to 7.5 mg twice a day): improvement continued
duration of benefits ([4]; Example 7, 25 mg, twice a day): five
pain and mobility ([4]; Example 7, 45 mg per day): significant decrease in pain and greater mobility
colonoscopy exam [5]: negative
symptoms ([5]; 50 mg twice a day): decreased intensity of symptoms
symptoms ([5]; 75 mg twice a day): decreased frequency of symptoms
diarrhea ([5]; 100 mg twice a day, asakol dosage reduced): diarrhea had stopped
clinical change ([6]; 15 mg in the morning and 30 mg every evening): further improvement
clinical change ([6]; 15 mg per day, after seven days): minimal change
carbohydrate craving ([6]; 15 mg twice a day): markedly reduced
facial and body rash, headaches, joint pain ([6]; 15 mg twice a day): began to subside, headaches disappeared and joint pain greatly diminished
energy and mood ([6]; 15 mg twice a day, over the next two weeks): striking improvement in energy and mood
duration of benefit ([6]; prednisone reduced to 10 mg): over 6 months
time at which PASI decrease was maintained ([7]; Example 12): 16 weeks
psoriasis area and severity index (PASI) ([7]; Example 12, 25 mg bid, within 8 weeks, from 12.2): 5.4
lesions ([7]; Example 12, after 10 days at 45 mg): began to decrease
lesions ([7]; Example 16, 15 mg every other day): minimal improvement
lesions ([7]; Example 16, 15 mg per day for 7 days): some improvement
lesions ([7]; Example 16, 30 mg/day in divided dosages): began to get worse
lesions ([7]; Example 16, 45 mg/day in divided doses): clear deterioration
lesions ([7]; Example 16, 60 mg per day): new lesions were occurring
PASI ([7]; Example 16, within the first eight weeks, judged to be unchanged): 29.1
duration of benefit ([8]; Example 8, 7.5 mg per day): more than 16 weeks
mucous ([8]; Example 8, 7.5 mg per day, after 7 days): decrease in mucous
mucous and bleeding ([8]; Example 8, 7.5 mg per day, after two weeks): no mucous or bleeding
adverse effect ([8]; Example 8, 15 mg per day): tired during the day
stools, bowel frequency, mucous ([8]; Example 8, 15 mg per day, after two weeks): stools became darker with increase bowel frequency of movements and mucous
mucous, bowel movements, bleeding ([8]; Example 8, resumed at 7.5 mg per day): decrease in mucous, bowel movements and bleeding
duration of benefit ([8]; Example 10, 7.5 mg per day): 18 weeks
bowel frequency, bleeding and mucous ([8]; Example 10, 15 mg per day, within one week): significant decrease in bowel frequency, bleeding and mucous
bowel frequency, bleeding and mucous ([8]; Example 10, dose increased to 30 and then to 45 mg per day): reversal of benefits and then a further exacerbation of systems
bowel frequency, bleeding and mucous ([8]; Example 10, resumed at 7.5 mg per day): significant decrease in frequency of bowel movement, bleeding and mucous
efficacy in simple and complex partial seizures and secondarily generalized seizures [9]: effective as adjunctive therapy or as monotherapy
seizures [10]: effectively block seizures
